Laboratory results reported in patent publication US20120220603A1, “SUBSTITUTED HETEROCYCLIC DERIVATIVES FOR THE TREATMENT OF PAIN AND EPILEPSY” (ZALICUS PHARMACEUTICALS LTD., priority 2009, published 2012).

Assays:
[1] = tested on: Lamina I/II spinal cord neurons; test: Lamina assay: current-clamp recordings on lamina I/II spinal cord neurons; assay type: cell-based, rat; settings: Lamina I and II; for % Spike Change (Mean; % change from control): tonic firing neurons, current-clamp
Source text: Male Wistar rats (P6 to P9 for voltage-clamp and P15 to P18 for current-clamp recordings) were anaesthetized through intraperitoneal injection of Inactin (Sigma). The spinal cord was then rapidly dissected out and placed in an ice-cold solution protective sucrose solution containing (in mM): 50 sucrose, 92 NaCl, 15 D-Glucose, 26 NaHCO3, 5 KCl, 1.25 NaH2PO4, 0.5 CaCl2, 7 MgSO4, 1 kynurenic acid, and bubbled with 5% CO2/95% O2. The meninges, dura, and dorsal and ventral roots were then removed from the lumbar region of the spinal cord under a dissecting microscope. The “cleaned” lumbar region of the spinal cord was glued to the vibratome stage and immediately immersed in ice cold, bubbled, sucrose solution. For current-clamp recordings, 300 to 350 μm parasagittal slices were cut to preserve the dendritic arbour of lamina I neurons, while 350 to 400 μm transverse slices were prepared for voltage-clamped […] channel recordings. Slices were allowed to recover for 1 hour at 35° C. in Ringer solution containing (in mM): 125 NaCl, 20 D-Glucose, 26 NaHCO3, 3 KCl, 1.25 NaH2PO4, 2 CaCl2, 1 MgCl2, 1 kynurenic acid, 0.1 picrotoxin, bubbled with 5% CO2/95% O2. The slice recovery chamber was then returned to room temperature (20 to 22° C.) and all recordings were performed at this temperature.
Neurons were visualized using IR-DIC optics (Zeiss Axioskop 2 FS plus, Gottingen, Germany), and neurons from lamina I and the outer layer of lamina II were selected based on their location relative to the substantia gelatinosa layer. Neurons were patch-clamped using borosilicate glass patch pipettes with resistances of 3 to 6 MΩ. Current-clamp recordings of lamina I/II neurons in the intact slice, the external recording solution was the above Ringer solution, while the internal patch pipette solution contained (in mM): 140 KGluconate, 4 NaCl, 10 HEPES, 1 EGTA, 0.5 MgCl2, 4 MgATP, 0.5 Na2GTP, adjusted to pH 7.2 with 5 M KOH and to 290 mOsm with D-Mannitol (if necessary). Only tonic firing neurons were selected for current-clamp experiments, while phasic, delayed onset and single spike neurons were discarded (22). Recordings were digitized at 50 kHz and low-pass filtered at 2.4 kHz.

[2] = tested on: Rat SNL tactile allodynia; test: L5/L6 spinal nerve ligation (SNL) Chung pain model, tactile allodynia (von Frey); assay type: in vivo
Source text: The Spinal Nerve Ligation is an animal model representing peripheral nerve injury generating a neuropathic pain syndrome. In this model experimental animals develop the clinical symptoms of tactile allodynia and hyperalgesia. L5/L6 Spinal nerve ligation (SNL) injury was induced using the procedure of Kim and Chung (Kim et al., Pain 50:355-363 (1992)) in male Sprague-Dawley rats (Harlan; Indianapolis, Ind.) weighing 200 to 250 grams.
Anaesthesia was induced with 2% isofluorane in O2 at 2 L/min and maintained with 0.5% isofluorane in O2. Rats were then shaved and aseptically prepared for surgeries. A 2 cm paraspinal incision was made at the level of L4-S2. L4/L5 was exposed by removing the transverse process above the nerves with a small rongeur. The L5 spinal nerve is the larger of the two visible nerves below the transverse process and lies closest to the spine. The L6 spinal nerve is located beneath the corner of the slope bone. A home-made glass Chung rod was used to hook L5 or L6 and a pre-made slip knot of 4.0 silk suture was placed on the tip of the rod just above the nerve and pulled underneath to allow for the tight ligation. The L5 and L6 spinal nerves were tightly ligated distal to the dorsal root ganglion. The incision was closed, and the animals were allowed to recover for 5 days.
Sham control rats underwent the same operation and handling as the experimental animals, but without SNL.
Prior to initiating drug delivery, baseline behavioural testing data is obtained. At selected times after infusion of the Test or Control Article behavioural data can then be collected again.
The assessment of tactile allodynia consisted of measuring the withdrawal threshold of the paw ipsilateral to the site of nerve injury in response to probing with a series of calibrated von Frey filaments (innocuous stimuli). Animals were acclimated to the suspended wire-mesh cages for 30 min before testing. Each von Frey filament was applied perpendicularly to the plantar surface of the ligated paw of rats for 5 sec. A positive response was indicated by a sharp withdrawal of the paw. For rats, the first testing filament is 4.31. Measurements were taken before and after administration of test articles. […] The protocol was repeated until three changes in behaviour were determined (“up and down” method) (Chaplan et al., J. Neurosci. Methods 53:55-63 (1994)). The 50% paw withdrawal threshold was determined as (10^[Xf+kδ])/10,000, where Xf=the value of the last von Frey filament employed, k=Dixon value for the positive/negative pattern, and S=the logarithmic difference between stimuli. The cut-off values for rats were no less than 0.2 g and no higher than 15 g (5.18 filament); for mice no less than 0.03 g and no higher than 2.34 g (4.56 filament). A significant drop of the paw withdrawal threshold compared to the pre-treatment baseline is considered tactile allodynia. […]

[3] = tested on: seizures induced by 6 Hz corneal stimulation in CF1 mice; test: 6 Hz psychomotor seizure model of partial epilepsy; assay type: in vivo, mouse; set-up: Epilepsy 6 Hz (% protected): concentration or dose not given beside the values; settings: 32 mA; for ED50: Mus musculus
Protocol: Compounds were evaluated for the protection against seizures induced by a 6 Hz, 0.2 ms rectangular pulse width of 3 s duration, at a stimulus intensity of 32 mA (CC97) applied to the cornea of male CF1 mice (20-30 g) according to procedures described by Barton et al, “Pharmacological Characterization of the 6 Hz Psychomotor Seizure Model of Partial Epilepsy,” Epilepsy Res. 47(3):217-27 (2001). Seizures are characterised by the expression of one or more of the following behaviours: stun, forelimb clonus, twitching of the vibrissae and Straub-tail immediately following electrical stimulation.

## O=C(CN1CCNCC1=O)Nc1cc(C(F)(F)F)cc(C(F)(F)F)c1 [Compound 1, N-(3,5-bis(trifluoromethyl)phenyl)-2-(2-oxopiperazin-1-yl)acetamide]
[1]
  % Spike Change (Mean; % change from control): −47.3%
[1]; Rattus norvegicus, Neuron
  EC50: 482 nM
[2]; 1 hour
  Rat SNL Tactile Allodynia (% Antiallodynia): 52%
[2]; 2 hours
  Rat SNL Tactile Allodynia (% Antiallodynia): 55%
[2]; 4 hours
  Rat SNL Tactile Allodynia (% Antiallodynia): 37%
[3]; 0.25 hr
  Epilepsy 6 Hz (% protected): 75%
[3]; 0.5 hr
  Epilepsy 6 Hz (% protected): 100%
[3]; 1 hr
  Epilepsy 6 Hz (% protected): 75%
[3]
  ED50: 128 mg/kg

## O=C1CN(CC(=O)Nc2cc(C(F)(F)F)cc(C(F)(F)F)c2)CCN1 [Compound 9, N-(3,5-bis(trifluoromethyl)phenyl)-2-(3-oxopiperazin-1-yl)acetamide]
[1]
  % Spike Change (Mean; % change from control): −35.5%
[2]; 1 hour
  Rat SNL Tactile Allodynia (% Antiallodynia): 36%
[2]; at 60 minutes compared to baseline and post-SNL
  Anti-allodynia in rat SNL tactile allodynia (in words): significant anti-allodynia
[3]; 0.25 hr
  Epilepsy 6 Hz (% protected): 75%
[3]; 0.5 hr
  Epilepsy 6 Hz (% protected): 25%
[3]; 1 hr
  Epilepsy 6 Hz (% protected): 88%
[3]; 2 hr
  Epilepsy 6 Hz (% protected): 75%
[3]; 4 hr
  Epilepsy 6 Hz (% protected): 0%
[3]
  ED50: 90 mg/kg
